# “Also recorded” adds a separate entry of the source. Where two headings read alike, the source gives them in different places.
# Assays:
# Format in all cases: physicochemical
# [1] = Long-term stability, 25° C., 60% RH, 9 months; conditions: for Purity % 3 months / Purity % 9 months / Purity Initial: 60% RH
# Protocol: Example 13: Three batches of the crystal form I of the dihydrochloride salt of the compound of formula (I) were subjected to a long-term stability investigation of 9 months under the conditions of 25° C±2° C., 60%RH±5%RH.
# [2] = XRPD of sample taken out during DSC temperature rise
# Description: According to X-ray powder diffraction detection, the crystal form is crystal form I, and the XRPD pattern thereof is shown in FIG. 1.
# [3] = Solubility in PBS 7.4 and FaSSIF solutions; conditions: thermodynamic from solid
# Description: The amorphous samples of the compound represented by formula (I) and the crystal form I samples of the dihydrochloride salt of the compound represented by formula (I) obtained in the present disclosure were further evaluated for solubility in PBS 7.4 and FaSSIF solutions.
# [4] = Log D
# [5] = Influencing factors stability (heating, light illumination, high humidity; spread and uncovered, 20 days)
# Protocol: Example 6: the crystal form I of the dihydrochloride salt of the compound represented by formula (I) (example 1) was spread and uncovered, and the steadily of the sample was evaluated under heating (40° C., 60° C.), light illumination (4500 Lux), and high humidity (RH 75%, RH 90%) with a period of 20 days.
# (§1) Example 10: the crystal form A (example 7) of the monohydrochloride salt of the compound of formula (I) was spread and uncovered, and the stability of the sample was evaluated under heating (40° C., 60° C.), light illumination (4500 Lux), high humidity (RH 75%, RH 90%) conditions with a period of 20 days.
# as §1, with “Example 11:” for “Example 10:”, “form B” for “form A (example 7)”, “compound represented by” for “compound of”, “(I) (example 8)” for “(I)”
# as §1, with “Example 12:” for “Example 10:”, “form C” for “form A (example 7)”, “compound represented by” for “compound of”, “(I) (example 9)” for “(I)”
# [6] = Hygroscopicity by dynamic vapor sorption (DVS); conditions: 25° C.
# Protocol: DVS is dynamic vapor sorption: Surface Measurement Systems advantage 2 is used, the humidity starts from 50%, the humidity range is 0%-95%, and the step size is 10%. The judgment standard is that the mass change is less than 0.01% within 10000 min, and two cycles are performed. Surface Measurement Systems advantage 2 was used, the experiment was carried out at 25° C. with humidity starting from 50%, the humidity range observed was 0%-95%, the step size was 10%, and the judgment standard was that the mass change was less than 0.01% within 10000 min, and two cycles were performed.
# [7] = light illumination (4500 Lux), 4 days
# [8] = light illumination (4500 Lux), 10 days
# [9] = light illumination (4500 Lux), 20 days
smiles,measurement,setting,value
"CCCCOc1nc(N)c2cnn(Cc3ccc(CN4CCCC4)cc3)c2n1.Cl.Cl [crystal form I, 6-butoxy-1-(4-(pyrrolidin-1-ylmethyl)benzyl)-1H-pyrazolo[3,4-d]pyrimidin-4-amine dihydrochloride]","physical and chemical stability, long-term (in words)","[1]; 25° C., 60% RH for 9 months",good
same,Purity % 3 months,"[1]; Batch 1, 25° C., 3 months",99.52%
same,Purity % 3 months,"[1]; Batch 1, 25° C., 3 months as printed, column between 3 and 9 months",99.57%
same,Purity % 9 months,"[1]; Batch 1, 25° C.",99.50%
same,Purity Initial,"[1]; Batch 1, 25° C.",99.57%
same,Purity % 3 months,"[1]; Batch 2, 25° C., 3 months",99.50%
same,Purity % 3 months,"[1]; Batch 2, 25° C., 3 months as printed, column between 3 and 9 months",99.48%
same,Purity % 9 months,"[1]; Batch 2, 25° C.",99.48%
same,Purity Initial,"[1]; Batch 2, 25° C.",99.53%
same,Purity % 3 months,"[1]; Batch 3, 25° C., 3 months",99.38%
same,Purity % 3 months,"[1]; Batch 3, 25° C., 3 months as printed, column between 3 and 9 months",99.33%
same,Purity % 9 months,"[1]; Batch 3, 25° C.",99.40%
same,Purity Initial,"[1]; Batch 3, 25° C.",99.44%
same,crystal form before and after temperature rise (XRPD),[2]; raised to 150° C.,did not change
same,crystal form before and after temperature rise (XRPD),[2]; raised to 175° C.,did not change
same,solubility,"[3]; FaSSIF solution, fassif, read-out: FasSIF Solubility",1250 µg/mL
same,solubility,"[3]; PBS 7.4, pH 7.4, aqueous buffer, read-out: PBS 7.4 Solubility",50 µg/mL
same,logD,[4],1.17
same,Maximum single impurity,[5]; 0 day,0.11%
same,Purity,[5]; 0 day,99.47%
same,Total impurities,[5]; 0 day,0.53%
same,Maximum single impurity,"[5]; 40° C., 4 days",0.11%
same,Purity,"[5]; 40° C., 4 days",99.49%
same,Total impurities,"[5]; 40° C., 4 days",0.51%
same,Maximum single impurity,"[5]; 40° C., 10 days",0.12%
same,Purity,"[5]; 40° C., 10 days",99.52%
same,Total impurities,"[5]; 40° C., 10 days",0.48%
same,Maximum single impurity,"[5]; 40° C., 20 days",0.12%
same,Purity,"[5]; 40° C., 20 days",99.46%
same,Total impurities,"[5]; 40° C., 20 days",0.54%
same,Maximum single impurity,"[5]; 60° C., 4 days",0.15%
same,Purity,"[5]; 60° C., 4 days",99.44%
same,Total impurities,"[5]; 60° C., 4 days",0.56%
same,Maximum single impurity,"[5]; 60° C., 10 days",0.11%
same,Purity,"[5]; 60° C., 10 days",99.53%
same,Total impurities,"[5]; 60° C., 10 days",0.47%
same,Maximum single impurity,"[5]; 60° C., 20 days",0.11%
same,Purity,"[5]; 60° C., 20 days",99.42%
same,Total impurities,"[5]; 60° C., 20 days",0.58%
same,Maximum single impurity,"[5]; 75% RH, 4 days",0.15%
same,Purity,"[5]; 75% RH, 4 days",99.38%
same,Total impurities,"[5]; 75% RH, 4 days",0.62%
same,Maximum single impurity,"[5]; 75% RH, 10 days",0.12%
same,Purity,"[5]; 75% RH, 10 days",99.53%
same,Total impurities,"[5]; 75% RH, 10 days",0.47%
same,Maximum single impurity,"[5]; 75% RH, 20 days",0.11%
same,Purity,"[5]; 75% RH, 20 days",99.47%
same,Total impurities,"[5]; 75% RH, 20 days",0.53%
same,Maximum single impurity,"[5]; 90% RH, 4 days",0.11%
same,Purity,"[5]; 90% RH, 4 days",99.46%
same,Total impurities,"[5]; 90% RH, 4 days",0.54%
same,Maximum single impurity,"[5]; 90% RH, 10 days",0.12%
same,Purity,"[5]; 90% RH, 10 days",99.54%
same,Total impurities,"[5]; 90% RH, 10 days",0.46%
same,Maximum single impurity,"[5]; 90% RH, 20 days",0.11%
same,Purity,"[5]; 90% RH, 20 days",99.52%
same,Total impurities,"[5]; 90% RH, 20 days",0.48%
same,Maximum single impurity,[5]; [7],0.14%
same,Purity,[5]; [7],99.45%
same,Total impurities,[5]; [7],0.55%
same,Maximum single impurity,[5]; [8],0.11%
same,Purity,[5]; [8],99.54%
same,Total impurities,[5]; [8],0.46%
same,Maximum single impurity,[5]; [9],0.12%
same,Purity,[5]; [9],99.41%
same,Total impurities,[5]; [9],0.59%
same,stability under the influencing factor conditions (in words),"[5]; light illumination, 40° C., 60° C., 75% RH, 90% RH, 20 days",good
same,DVS weight change 0.0% RH-95.0% RH,[6]; 0.0% RH-95.0% RH,9.19%
same,DVS weight change 10%RH-90.0%RH,[6]; 10%RH-90.0%RH,6.628%
same,Crystal form before and after DVS (XRPD),"[6]; DVS two cycles, dihydrochloride",did not change; also recorded: has not changed; also recorded: unchanged
same,hygroscopicity (in words),"[6]; DVS, dihydrochloride",slightly hygroscopic; also recorded: (with hygroscopicity)

# Reference: patent publication US20210188856A1, “CRYSTAL FORM OF HYDROCHLORIDE OF PYRAZOLOHETEROARYL DERIVATIVE AND PREPARATION METHOD” (JIANGSU HENGRUI MEDICINE CO., LTD., priority 2018, published 2021)
